Data on 14 compounds can be found in US7816400B2 (The University of Hong Kong, priority 2007, dated 2010).

Read-outs that look alike come from different tables or passages of the source.

For series [1], the system named is human atrial myocytes. The series can be described thus: Action potential in human atrial myocytes, perforated patch, current clamp. In kind it is cell-based.
From the text: Atrial cells were isolated from specimens of human right atrial appendage obtained from patients (56.1±4.7 years old) undergoing coronary artery bypass grafting. […] All patients were free from supraventricular tachyarrythmias, and the atria were grossly normal at the time of surgery. After excision, the samples were quickly immersed in oxygenated, normally Ca^2+-free cardioplegic solution for transport to the laboratory. Atrial myocytes were enzymatically dissociated as described previously (Tian et al., 2006; Gao et al., 2004). Briefly, the atrial tissue was minced, and gently agitated by continuous bubbling with 100% O2 in a Ca^2+-free Tyrode solution for 15 min (5 min at a time in fresh solutions), and then incubated for 50 min in a similar solution containing 150-200 U/ml collagenase (CLS II, Worthington Biochemical, Freehold, N.J., USA), 0.2 mg/ml protease (type XXIV, Sigma-Aldrich Chemical, St Louis, Mo., USA.) and 1 mg/ml bovine serum albumin (Sigma-Aldrich). After then, the chunks were re-incubated in a fresh enzyme solution of the same composition but no protease. The quantity and quality of isolated cells were monitored under a microscope. When the cell yield appeared optimal, the chunks were suspended in a high K medium containing (mM) 10 KCl, 120 K-glutamate, 10 KH2PO4, 1.8 MgSO4, 10 taurine, 10 HEPES, 0.5 EGTA, 20 glucose, 10 mannitol, pH was adjusted to 7.3 with KOH and gently blown with a pipette. The isolated myocytes were kept at room temperature in the medium at least 1 h before use.
A small aliquot of the solution containing the isolated cells was placed in an open perfusion chamber (1-ml) mounted on the stage of an inverted microscope. Myocytes were allowed to adhere to the bottom of the chamber for 5-10 min and were the superfused at 2-3 ml/min with Tyrode solution. Only quiescent rod-shaped cells with clear cross-striations were used. The studies were conducted at room temperature (21-22° C.) for current recording or 36° C. for action potential recording.
The whole-cell patch-clamp technique was used for electrophysiological recording. Borosilicate glass electrodes (1.2-mm OD) were pulled with a Brown-Flamming puller (model P-97, Sutter Instrument Co, Novato, Calif., USA) and had tip resistances of 2-3 MΩ when filled with pipette solution. […] A 3-M KCl-agar salt bridge was used as reference electrode. The tip potentials were compensated before the pipette touched the cell. After a giga-ohm seal was obtained, the cell membrane was ruptured by gentle suction to establish the whole-cell configuration. […] The series resistance (Rs) was 3-5 MΩ and was compensated by 50-70% to minimize voltage errors. Perforated patch configuration was used for recording action potential in human atrial cells and IKs in HEK 293 cells as described previously (Li et al., 2002b; Dong et al., 2006). Current signals were low-pass filtered at 5 kHz and stored on the hard disk of an IBM compatible computer.
Series [2] concerns the target T1, Kv1.5 (Homo sapiens, UniProt P22460).
T1 construct: expressed in transfected cells
The series can be described thus: Kv1.5 channel block in stably expressing HEK 293 cells. In kind it is cell-based. The method, then:
The established HEK 293 cell lines stably expressing the hERG channel gene, Kv1.5 (Tang et al., 2007), or recombinant human cardiac KCNQ1/KCNE1 channel current (IKs) (Dong et al., 2006) was maintained separately in Dulbecco's modified eagle medium (Invitrogen) supplemented with 10% fetal bovine serum and containing 400 μg/ml G418 (for hERG or Kv1.5 channels) or 100 μg/ml hygromycin (for IKs).
The whole-cell patch-clamp technique was used for electrophysiological recording. Borosilicate glass electrodes (1.2-mm OD) were pulled with a Brown-Flamming puller (model P-97, Sutter Instrument Co, Novato, Calif., USA) and had tip resistances of 2-3 MΩ when filled with pipette solution. Membrane currents were recorded in voltage-clamp mode using an EPC-9 amplifier and Pulse software (HEKA, Lambrecht, Germany). A 3-M KCl-agar salt bridge was used as reference electrode. The tip potentials were compensated before the pipette touched the cell. After a giga-ohm seal was obtained, the cell membrane was ruptured by gentle suction to establish the whole-cell configuration. The cell membrane capacitance (pF) was directly measured using the lock-in module of the Pulse software, and used for normalizing the current in individual cells. The series resistance (Rs) was 3-5 MΩ and was compensated by 50-70% to minimize voltage errors. Perforated patch configuration was used for recording action potential in human atrial cells and IKs in HEK 293 cells as described previously (Li et al., 2002b; Dong et al., 2006). Current signals were low-pass filtered at 5 kHz and stored on the hard disk of an IBM compatible computer.
Other derivatives/analogs studied have no effect or a week inhibitory effect on Kv1.5.

For series [3], the target named is hERG channels (Homo sapiens, UniProt Q12809). The series can be described thus: cell-based.
hERG channels, sequence (Q12809 whole entry, the tested form may be a part): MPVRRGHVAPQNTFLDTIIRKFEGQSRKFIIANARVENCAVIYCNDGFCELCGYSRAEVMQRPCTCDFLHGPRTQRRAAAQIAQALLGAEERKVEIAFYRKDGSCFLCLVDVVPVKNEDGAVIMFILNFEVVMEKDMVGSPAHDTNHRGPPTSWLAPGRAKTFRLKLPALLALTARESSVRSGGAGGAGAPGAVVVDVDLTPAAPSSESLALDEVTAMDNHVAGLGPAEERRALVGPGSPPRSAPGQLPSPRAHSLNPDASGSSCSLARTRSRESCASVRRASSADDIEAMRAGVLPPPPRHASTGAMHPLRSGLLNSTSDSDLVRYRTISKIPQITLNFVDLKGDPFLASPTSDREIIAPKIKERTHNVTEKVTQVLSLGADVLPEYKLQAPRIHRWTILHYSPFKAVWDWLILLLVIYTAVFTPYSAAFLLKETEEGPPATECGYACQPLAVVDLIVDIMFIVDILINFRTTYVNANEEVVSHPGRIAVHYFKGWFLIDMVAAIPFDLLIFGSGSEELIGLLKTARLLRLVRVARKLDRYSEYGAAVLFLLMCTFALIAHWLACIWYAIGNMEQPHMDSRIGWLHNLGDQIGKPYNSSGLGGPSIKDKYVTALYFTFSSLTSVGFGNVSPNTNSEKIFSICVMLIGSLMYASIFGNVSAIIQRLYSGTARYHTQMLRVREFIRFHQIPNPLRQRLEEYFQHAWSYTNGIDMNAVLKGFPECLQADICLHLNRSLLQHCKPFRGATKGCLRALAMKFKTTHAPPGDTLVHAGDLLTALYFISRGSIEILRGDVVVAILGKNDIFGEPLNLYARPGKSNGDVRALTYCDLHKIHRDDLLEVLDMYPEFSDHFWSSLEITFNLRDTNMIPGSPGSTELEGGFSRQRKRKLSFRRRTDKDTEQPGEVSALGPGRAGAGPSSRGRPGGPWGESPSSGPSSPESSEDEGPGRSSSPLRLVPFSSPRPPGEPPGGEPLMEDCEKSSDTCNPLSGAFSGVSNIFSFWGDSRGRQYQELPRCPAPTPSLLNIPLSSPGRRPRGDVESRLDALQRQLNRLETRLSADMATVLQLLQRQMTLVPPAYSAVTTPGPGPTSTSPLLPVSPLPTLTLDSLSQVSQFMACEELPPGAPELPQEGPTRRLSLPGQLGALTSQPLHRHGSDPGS
In series [4] the test system is isolated rabbit hearts. The series can be described thus: ECG (heart rate, QTc) in isolated hypokalemic rabbit hearts, Langendorff. The settings on record: 10 μM, hypokalemic (3 mM K+) perfusion.
Method: ECG was recorded with a Powerlab recording system via two electrodes placed respectively on base and apex of the heart.
The hearts were perfused using a hypokalemic (3 mM K^+) solution.
Series [5] relates to anesthetized dogs. The series can be described thus: In vivo electrophysiology (atrial ERP, QTc) in anesthetized dogs. The settings on record: 5 mg/kg intraduodenal. Further details: species or system dog.
Method: Adult mongrel dogs (12-15 kg) were anesthetized with pentobarbital (30 mg/kg i.v.), supplemented during the experiment when needed. The animal was intubated and ventilated with room air. Body temperature was maintained at 37-38° C. with a temperature control system. The left femoral vein was cannulated for maintenance of anesthesia and introducing the mono-phasic action potential (MAP) recording- and pacing-catheters (Boston Scientific Ltd) to the right atrium. The vagus nerves were isolated and divided in the neck. […] A left thoracotomy was performed in the fourth intercostal space, and the pericardium was incised to provide access to the left atrium for introducing the MAP catheter. The catheters were used for recording MAPs of right and left atria, respectively, and for measurement of effective refractory period (ERP). […] A ligation was made at the pylorus with a thick cotton thread to prevent the possible back flow of the duodenum content.
Following a 30-min equilibration period and measurement of atrial excitation threshold with 2-ms duration of stimuli, atrial ERP was determined using a train of 8 basic stimuli (S1, twice-diastolic threshold) followed by an identical premature stimulus (S2). The basic cycle lengths (BCL) of 200, 250 and 300 ms were applied in both right and left atria. S2 was initially delivered late in diastole in 5-ms decrements until a response was not elicited by the S2 indicated on the MAP recording. The ERP was defined as the longest S1-S2 interval failing a propagated response, and the procedure was repeated for three times for each measurement. MAP, ECG and blood pressure signals were continuously monitored and stored on an IBM compatible PC computer using a multiple channels data acquisition system (RM-6280C, Chengdu Instrument Ltd, Chendu, China).
The ERP measurement was then repeated every hour post drug administration for 6 hours. Excitation threshold of both right and left atria was verified before ERP each measurement. • 1.7.2.
The ERPs were determined in anesthetized dogs using the BCLs of 300, 250, and 200 ms by introducing S1-S2 via a programmed cardiac stimulator (FIG. 10A).
The subject of series [6] is anesthetized dogs. The series can be described thus: Experimental vagotonic AF in anesthetized dogs. In kind it is in vivo, dog.
Method: Sustained vagotonic AF was generated in anesthetized dogs by introducing two MAP catheters respectively into the right atrium and the left ventricle along with stimulation of the divided bilateral vagal nerves in the neck. […] Ventricular pacing was performed with 2 ms voltage pulses (2.5 Hz, 150% diastolic threshold) when vagal nerves were continuously stimulated. AF was generated by the BCL 100-ms S1 followed by S2, lasting for 10 min. […] The sustained AF could be repeatedly generated and terminated by stopping vagal stimulation. AF incidence and AF duration were recorded before and at different time points (0.5, 1, 1.5, 2, 3, and 4h) after intraduodenal administration of drugs.
AF was induced by S1-S2 stimulation at 100 ms BCL with bilateral vagal stimulation (see Methods & FIG. 12) at certain time points during the 0.5 to 4 h period following intraduodenal administration. AF lasted for 10 min and terminated once vagal stimulation was stopped. No AF occurrence or shortened AF duration during the continuous vagal stimulation were considered to represent prevention of AF.
Setting [7] is: HEK293, HEK 293 cells stably expressing Kv1.5, Table 3, read-out: Kv1.5 (IC50).
Where [8] appears, read: HEK 293 cells stably expressing Kv1.5, Table 3, read-out: Kv1.5 (IC50).
Setting [9] is: BCL 200 ms, pre-treatment (baseline).
Where [10] appears, read: BCL 250 ms, pre-treatment (baseline).

T1 sequence (P22460 whole entry): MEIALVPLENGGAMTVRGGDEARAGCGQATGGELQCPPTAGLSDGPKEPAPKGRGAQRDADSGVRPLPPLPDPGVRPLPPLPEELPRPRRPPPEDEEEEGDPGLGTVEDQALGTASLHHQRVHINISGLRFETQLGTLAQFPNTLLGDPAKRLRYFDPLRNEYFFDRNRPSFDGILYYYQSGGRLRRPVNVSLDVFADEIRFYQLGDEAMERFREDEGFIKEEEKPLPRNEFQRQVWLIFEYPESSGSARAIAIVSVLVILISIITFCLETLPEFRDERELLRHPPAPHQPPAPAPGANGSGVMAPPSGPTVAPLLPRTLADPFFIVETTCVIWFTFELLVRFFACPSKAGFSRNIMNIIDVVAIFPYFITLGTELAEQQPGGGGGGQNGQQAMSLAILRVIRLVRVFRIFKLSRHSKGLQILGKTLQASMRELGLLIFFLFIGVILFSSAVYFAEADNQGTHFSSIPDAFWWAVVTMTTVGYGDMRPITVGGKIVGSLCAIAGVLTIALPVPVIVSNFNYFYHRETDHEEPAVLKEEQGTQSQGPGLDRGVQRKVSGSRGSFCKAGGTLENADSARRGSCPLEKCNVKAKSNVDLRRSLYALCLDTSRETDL

With `Nc1ccncc1` [4-AP, reference compound], the “rate dependence of APD50, APD75, APD90 prolongation, in words” value in series [1] (50 μM 4-AP (data not shown)) is recorded as “reverse rate-dependent prolongation”. Besides, in series [1] (50 μM 4-AP, 2 Hz), the “action potential duration, in words” value is listed as “prolonged APD50 more than APD90”.
As to `COc1ccc(-c2cc(=O)c3c(O)cc(OC(C)=O)cc3o2)cc1` [A-2-11], in series [2] (setting [7]), the inhibition at 100 µM was less than 50%. The “effect on Kv1.5 compared with acacetin, in words” value in series [2] (comparative study, Table 3) is “less effect”.
`COc1ccc(-c2cc(=O)c3c(O)cc(OC(=O)c4ccccc4)cc3o2)cc1` [A-2-12]: the inhibition at 100 µM in series [2] (setting [7]) was less than 50%. In addition, the “effect on Kv1.5 compared with acacetin, in words” value in series [2] (comparative study, Table 3) is given as “less effect”.
For `COc1ccc(-c2cc(=O)c3c(O)cc(OC)cc3o2)cc1` [A-2-13], the inhibition at 100 µM in series [2] (HEK293, read-out: Kv1.5 (IC50, μM)) was less than 50%. In addition, in series [2] (comparative study, Table 3), the “effect on Kv1.5 compared with acacetin, in words” value was “less effect”.
Turning to `CCOc1cc(O)c2c(=O)cc(-c3ccc(OC)cc3)oc2c1` [A-2-14], in series [2] (setting [7]), the inhibition at 100 µM was less than 50%. Also, the “effect on Kv1.5 compared with acacetin, in words” value in series [2] (comparative study, Table 3) is given as “less effect”.
The term IC50 denotes the concentration needed to halve the response being measured. As for `COc1ccc(C(=O)Oc2cc(O)cc3oc(-c4ccc(OC)cc4)cc(=O)c23)cc1` [A-2], the results for the half-maximal inhibitory concentration (IC50) in series [2] (setting [8]) and in series [3] were 2.04 µM and 4.1 µM, respectively. Further, the “ion channel selectivity for Kv1.5 and hERG channels compared with acacetin, in words” value in series [2] (comparative study, Table 3) is listed as “less ion channel selectivity”.
With `COc1ccc(-c2cc(=O)c3ccccc3o2)cc1` [A-4], the half-inhibitory concentration (IC50) in series [2] (setting [8]) came to 9 µM. Moreover, the “effect on Kv1.5 compared with acacetin, in words” value in series [2] (comparative study, Table 3) is listed as “less effect”.
As for `COc1ccc(-c2cc(=O)c3cc(Cl)ccc3o2)cc1` [A-5], the figures for the IC50 in series [2] (setting [8]) and in series [3] were 23.5 µM and 13 µM, respectively. In addition, the “effect on Kv1.5 compared with acacetin, in words” value in series [2] (comparative study, Table 3) is “less effect”.
On to `COc1ccc(-c2cc(=O)c3cc(C)ccc3o2)cc1` [A-6], for which the IC50 in series [2] (setting [8]) was 13.7 µM. Besides, the “effect on Kv1.5 compared with acacetin, in words” value in series [2] (comparative study, Table 3) is listed as “less effect”.
`Oc1cc(O)c2c(c1)O[C@H](c1ccc(O)c(O)c1)[C@@H](O)C2` [A-9]: the IC50 in series [2] (setting [8]) and in series [3] was greater than 100 µM throughout. In series [2] (comparative study, Table 3), the “effect on Kv1.5 compared with acacetin, in words” value is listed as “no effects”.
`CC1OC(OCC2OC(Oc3c(-c4ccc(O)c(O)c4)oc4cc(O)cc(O)c4c3=O)C(O)C(O)C2O)C(O)C(O)C1O` (stereo not shown) [A-11]: the concentration for half-maximal inhibition (IC50) in series [2] and in series [3] was greater than 100 µM in each case. Besides, the “effect on Kv1.5 compared with acacetin, in words” value in series [2] (comparative study, Table 3) was “no effects”.
For `O=c1cc(-c2ccccc2)oc2cc(O)c(O)c(O)c12` [A-12], the IC50 in series [2] (setting [8]) and in series [3] was greater than 100 µM in each case. In addition, the “effect on Kv1.5 compared with acacetin, in words” value in series [2] (comparative study, Table 3) is “no effects”.
Regarding `C=C[C@H]1C[N@@]2CC[C@H]1C[C@@H]2[C@@H](O)c1ccnc2ccc(OC)cc12` [Quinidine, quinidine], in series [4], the “QTc interval of ECG, in words” value is “prolonged QTc interval” and the “heart rate, in words” value is given as “slowed heart rate”. Further, in series [4] (listed as quinidine), the “QTc interval of ECG, in words” value is given as “significantly increased”.
For `CC(C)NCC(O)c1ccc(NS(C)(=O)=O)cc1` (stereo not shown) [Sotalol, sotalol], the “left atrial ERP (ms), BCL 200 ms” value in series [5] (BCL 200 ms, 2 h post-treatment) stood at 105.1 ± 5.1 ms. Also, in series [5] (setting [9]), the “left atrial ERP (ms), BCL 200 ms” value is recorded as 88.8 ± 3.7 ms and the “right atrial ERP (ms), BCL 200 ms” value came out at 88.7 ± 3.9 ms. Also, in series [5] (setting [10]), the “left atrial ERP (ms), BCL 250” value is 94.3 ± 3.1 ms and the “right atrial ERP (ms), BCL 250” value is 96.3 ± 8.3 ms. Also, the “summarized anti-AF efficacy” value in series [6] (5 mg/kg intraduodenal, vehicle 0%) worked out at 60%. Further, the “animals in which sustained AF was not observed” value in series [6] (5 mg/kg intraduodenal, vehicle: sustained AF in 100%) is reported as 40%. In addition, the “incidence of AF, in words” value in series [6] (acacetin 2.5, 5, 10 mg/kg, sotalol 5 mg/kg, 1.5-2.5 h after intraduodenal administration) was “reduced the incidence of AF”.
